Measured values published in patent publication US20040229268A1, “Method and kit for identifying antibiotic-resistant microorganisms” (priority 2003, published 2004).

System: mecA gene; rRNA (pan-bacterial probe)
Assay: Hybridization Protection Assay (HPA), AE-labeled probes, thermally lysed specimens (Examples 1-2)
Format: binding, S. aureus
Description: The specimens were lysed by suspending approximately 5×10^8 cells in a lysis buffer (0.1% lithium lauryl sulfate, 1 mM EDTA, 20 mM lithium succinate, pH 5.5) and then incubating in a heat block set at 110° C. for 20 minutes. Thermal lysis of a variety of other specimens was effected under a range of temperature (heat block set at about 95° C. to 110° C.) and time (about 10 to 25 minutes) conditions. The lysed samples were tested for the presence of target sequences complementary to the probes using a Hybridization Protection Assay (HPA) as described by Arnold et al., in Clin. Chem. 35:1588(1989) and U.S. Pat. No. 6,004,745. 50 μl of the heat-treated suspension was incubated with an equal volume of AE-labeled probe in 2× hybridization buffer (1.2 M LiCl, 2% lithium lauryl sulfate, 20 mM EDTA, 20 mM EGTA, 100 mM lithium succinate, pH 5.5) at 60° C. for 30 minutes. The pH of succinate solutions may range from about 4.5 to about 5.5, although it is desirable to use a pH of 4.8 for succinate buffering. 300 μl of a selection reagent (0.6 M borate buffered solution, pH 8.5; note, pH may vary from 8.0 to 9.0) was added, the mixture was heated at 60° C. for 10 minutes to effect differential hydrolysis, and the samples were read in a GEN-PROBE® LEADER® luminometer using sequential 300 μl injections of 0.1% H2O2 and 1 N NaOH solutions (see Arnold et al, supra; GEN-PROBE® Detection Reagent Kit, Cat. No. 1791 may be used).
Procedures similar to those described in Example 1 were conducted using a large number of bacterial samples, except that parallel hybridization reactions employed a pan-bacterial probe which targeted rRNA (Probe Reagent 1, GEN-PROBE® MTC-NI Kit, catalog no. 4573). […] The pan-bacterial probe reagent served as a positive control for lysis of all of the specimens. In this procedure each sample was tested against a panel of the three probes contained in separate hybridization reactions. Aliquots of the samples tested using the pan-bacterial probe reagent were diluted 1:3000 prior to performing luminometry so that results fell within the linear range of the detector. The signals indicated lysis and detection of ribosomal nucleic acids in each of the samples. These values depended on the number of bacterial cells in the specimen, as well as on the extent of cell lysis and the release or accessibility of ribosomal nucleic acids from the cells to be detected by the pan-bacterial probe.

GGTATGTGGAAGTTAGATTGGGATCATAGCG (AE label, linker between 13 and 14, chemistry not fully specified; listed as Staphylococcus aureus) [Probe 1]
AE-probe Average RLU (No Specimen): 431 RLU | AE-probe Average RLU (S. aureus specimen #99, mecA PCR Pos): 2664 RLU | AE-probe Average RLU (S. aureus specimen #100, mecA PCR Neg): 590 RLU | AE-Probe Signal (RLU) (Table 2, Negative Control): 1817 RLU | AE-Probe Signal (RLU) (Table 2, specimen 10, mecA PCR Neg, pan-bacterial diluted 1:3000 prior to luminometry): 2918 RLU | AE-Probe Signal (RLU) (Table 2, specimen 99, mecA PCR Pos, pan-bacterial diluted 1:3000 prior to luminometry): 5822 RLU | AE-Probe Signal (RLU) (Table 2, specimen 100, mecA PCR Neg, pan-bacterial diluted 1:3000 prior to luminometry): 815 RLU | AE-Probe Signal (RLU) (Table 2, specimen 101, mecA PCR Neg, pan-bacterial diluted 1:3000 prior to luminometry): 2768 RLU | AE-Probe Signal (RLU) (Table 2, specimen 102, mecA PCR Pos, pan-bacterial diluted 1:3000 prior to luminometry): 5623 RLU | AE-Probe Signal (RLU) (Table 2, specimen 103, mecA PCR Neg, pan-bacterial diluted 1:3000 prior to luminometry): 1097 RLU | AE-Probe Signal (RLU) (Table 2, specimen 104, mecA PCR Neg, pan-bacterial diluted 1:3000 prior to luminometry): 959 RLU | AE-Probe Signal (RLU) (Table 2, specimen 105, mecA PCR Neg, pan-bacterial diluted 1:3000 prior to luminometry): 1086 RLU | AE-Probe Signal (RLU) (Table 2, specimen 106, mecA PCR Neg, pan-bacterial diluted 1:3000 prior to luminometry): 1327 RLU | AE-Probe Signal (RLU) (Table 2, specimen 139, mecA PCR Pos, pan-bacterial diluted 1:3000 prior to luminometry): 5755 RLU | AE-Probe Signal (RLU) (Table 2, specimen 140, mecA PCR Pos, pan-bacterial diluted 1:3000 prior to luminometry): 3143 RLU | AE-Probe Signal (RLU) (Table 2, specimen 142, mecA PCR Pos, pan-bacterial diluted 1:3000 prior to luminometry): 6845 RLU | AE-Probe Signal (RLU) (Table 2, specimen 145, mecA PCR Neg, pan-bacterial diluted 1:3000 prior to luminometry): 997 RLU | AE-Probe Signal (RLU) (Table 2, specimen 148, mecA PCR Pos, pan-bacterial diluted 1:3000 prior to luminometry): 10483 RLU | AE-Probe Signal (RLU) (Table 2, specimen 155, mecA PCR Neg, pan-bacterial diluted 1:3000 prior to luminometry): 730 RLU | AE-Probe Signal (RLU) (Table 2, specimen 164, mecA PCR Neg, pan-bacterial diluted 1:3000 prior to luminometry): 1546 RLU | AE-Probe Signal (RLU) (Table 2, specimen 178, mecA PCR Pos, pan-bacterial diluted 1:3000 prior to luminometry): 7772 RLU | AE-Probe Signal (RLU) (Table 2, specimen 188, mecA PCR Pos, pan-bacterial diluted 1:3000 prior to luminometry): 11856 RLU | AE-Probe Signal (RLU) (Table 2, specimen 270, mecA PCR Pos, pan-bacterial diluted 1:3000 prior to luminometry): 9256 RLU | AE-Probe Signal (RLU) (Table 2, specimen 296, mecA PCR Pos, Lab Pos control, pan-bacterial diluted 1:3000 prior to luminometry): 5567 RLU
